These results are taken from patent publication US3946003A, “Hydroxy substituted phenylglycylamido-3-heterocyclic thiomethyl cephalosporins” (Eli Lilly and Company, priority 1974, dated 1976).

One series has as its system Serratia marcescens. As to the kind of experiment: Antibacterial activity, MIC by Gradient-plate technique. The class given is cell-based. The settings on record: for MIC: read-out: Minimum Inhibitory Concentration. The text has this: (§1) The cephalosporin compounds of this invention (Formula I, R1 =H) are orally effective broad spectrum antibiotics which are useful in controlling infections caused by gram-positive and gram-negative bacteria. […] In Table I, below, the antibacterial activity of the compounds of formula I wherein R1 is hydrogen is illustrated. The bacteria are gram-negative bacteria and the activity is presented as minimum inhibitory concentrations in micrograms per milliliter (mcg./ml.). The activity was obtained by the Gradient-plate technique.

The subject of another series is Aerobacter aerogenes. The description is as above. The settings on record: for MIC: Klebsiella aerogenes, read-out: Minimum Inhibitory Concentration. The class given is cell-based.
From the text: as §1

The next series relates to Escherichia coli. The description is as above. The class given is cell-based. The settings on record: for MIC: read-out: Minimum Inhibitory Concentration.
From the text: as §1

Another series concerns Pseudomonas aeruginosa. Described as above. The series is classed as cell-based. The settings on record: for MIC: read-out: Minimum Inhibitory Concentration.
From the text: as §1

A further series concerns Shigella sp. The series is described as above. The series is classed as cell-based. The settings on record: for MIC: read-out: Minimum Inhibitory Concentration.
From the text: as §1

Another series relates to Klebsiella pneumoniae. The series is described as above. The series is classed as cell-based. The settings on record: for MIC: read-out: Minimum Inhibitory Concentration.
From the text: as §1

Another series deals with Salmonella heidelberg. Described as above. The series is classed as cell-based. The settings on record: for MIC: Salmonella enterica, read-out: Minimum Inhibitory Concentration.
From the text: as §1

Series [1] can be described thus: Duration of antibiotic blood levels in mice after single oral dose (agar disc-plate assay, Sarcina lutea). The class given is in vivo. The settings on record: mouse, single oral dose 20 mg./kg.; for concentration at 10 min: 10 min post administration; for concentration at 20 min: 20 min post administration; for concentration at 0.5 h: 30 min post administration; for concentration at 1 h: 60 min post administration; for concentration at 1.5 h: 90 min post administration; for concentration at 2 h: 120 min post administration; for Cmax: read-out: peak blood level. The method, then:
The determinations were carried out in groups of 3 or 4 mice as indicated in the table and the results averaged. At the indicated time intervals post administration, blood samples were withdrawn at the orbital sinus from each mouse in the test group and assayed for the concentration of antibiotic. […]

The subject of series [2] is Streptococcus pyogenes C203. As to the kind of experiment: Oral therapy of experimental infections in mice. The class given is in vivo. The settings on record: for ED50: Streptococcus pyogenes C203, mice, oral (gavage) at 1 and 5 hours post infection, read-out: Effective Dose (ED50). The method, then: (§2) In Table II, the respective effective doses (ED50) for these antibiotics is presented. The data were obtained in mice infected with the indicated microorganism following oral administration of the antibiotics at 1 and 5 hours post infection.
(§3) ^1 mg./kg. × 2 oral doses (gavage) at 1 and 5 hours post

The next series relates to Proteus mirabilis PR6. As to the kind of experiment: Oral therapy of experimental infections in mice. The class given is in vivo. The settings on record: oral (gavage) at 1 and 5 hours post infection, read-out: Effective Dose (ED50). The method, then:
as §2, §3

Series [3] has as its system Diplococcus pneumoniae Park I. As to the kind of experiment: Oral therapy of experimental infections in mice. The class given is in vivo. The settings on record: Streptococcus pneumoniae, oral (gavage) at 1 and 5 hours post infection, read-out: Effective Dose (ED50). As for the experimental part:
as §2, §3

In a further series the test system is Escherichia coli EC14. As to the kind of experiment: Oral therapy of experimental infections in mice. The series is classed as in vivo. The settings on record: oral (gavage) at 1 and 5 hours post infection, read-out: Effective Dose (ED50). As for the experimental part:
as §2, §3

A further series in a line: physchem. The settings on record: 6% dmf.

In brackets after ≈: the same amount, converted by molar mass.

In the case of “7β-(D-4-hydroxyphenylglycylamido)-3-(1-methyl-1H-tetrazole-5-ylthiomethyl)-3-cephem-4-carboxylic acid”, the “Minimum Inhibitory Concentration” value was determined as 5.0 µg/mL in the series with Serratia marcescens; 0.9 µg/mL in the series on Aerobacter aerogenes; 0.9 µg/mL in the series with Escherichia coli; 120 µg/mL in the series on Pseudomonas aeruginosa; 0.8 µg/mL in the series with Shigella sp.; 0.6 µg/mL with Klebsiella pneumoniae. Also, the “Minimum Inhibitory Concentration” value in the series on Salmonella heidelberg is 0.8 µg/mL.
Usually ED50 stands for the midpoint of the dose-response relation. In [1], `Cn1nnnc1SCC1=C(C(=O)O)N2C(=O)[C@@H](NC(=O)[C@H](N)c3ccc(O)cc3)[C@H]2SC1` [compound 1, 7β-(4-hydroxyphenylglycylamido)-3-(1-methyl-1H-tetrazole-5-ylthiomethyl)-3-cephem-4-carboxylic acid] came in with a concentration at 10 min of 2560 ng/mL. The compound further had a concentration at 20 min in [1] of 5780 ng/mL. The concentration at 0.5 h in series [1] is 8550 ng/mL. For the same compound, the concentration at 1 h in series [1] came out at 8880 ng/mL. The concentration at 1.5 h in [1] came to 6940 ng/mL. The concentration at 2 h in series [1] was 5360 ng/mL. In series [1], the Cmax was roughly 8900 ng/mL. Besides, the MIC in the series on Serratia marcescens was 12.5 µg/mL (≈ 26.2 µM); in the series with Aerobacter aerogenes, 0.7 µg/mL (≈ 1.47 µM); in the series with Escherichia coli it was 1 µg/mL (≈ 2.09 µM); with Pseudomonas aeruginosa, greater than 200 µg/mL; with Shigella sp., 0.8 µg/mL (≈ 1.68 µM); in the series on Klebsiella pneumoniae, 1 µg/mL (≈ 2.09 µM). For the same compound, in the series on Salmonella heidelberg, the MIC amounted to 0.6 µg/mL (≈ 1.26 µM). The ED50 in [2] was 0.18 mg/kg; in the series with Proteus mirabilis PR6, less than 4.5 mg/kg; in [3] it was less than 1.1 mg/kg; with Escherichia coli EC14, 3.7 mg/kg.
As to `Cn1nnnc1SCC1=C(C(=O)O)N2C(=O)C(NC(=O)C(N)c3ccccc3)C2SC1` (stereo not drawn) [compound 2, reference compound], in [1], the concentration at 10 min is 260 ng/mL, the concentration at 20 min amounted to 750 ng/mL, the concentration at 0.5 h was 1170 ng/mL and the concentration at 1 h was determined as 890 ng/mL. In series [1], the concentration at 1.5 h was 1090 ng/mL and the Cmax was roughly 1200 ng/mL. Moreover, the 50% effective dose (ED50) in [2] was determined as 4.05 mg/kg. The ED50 in the series on Escherichia coli EC14 was found to be 8.4 mg/kg.
As usually defined, the pKa is the negative logarithm of the acid dissociation constant. For `Cc1nnc(SCC2=C(C(=O)O)N3C(=O)[C@@H](NC(=O)[C@H](N)c4ccc(O)cc4)[C@H]3SC2)s1` [compound 3, 7β-(D-4-hydroxyphenylglycylamido)-3-(5-methyl-1,3,4-thiadiazol-2-ylthiomethyl)-3-cephem-4-carboxylic acid], the pKa in the series “physchem” (pKa (first)) was 4.4; in the series “physchem” (pKa (second)), 7.6; in the series “physchem” (pKa (third)) it was 12.2. In addition, the concentration at 10 min in series [1] amounted to 10600 ng/mL. Further, the concentration at 20 min in series [1] amounted to 13200 ng/mL. Also, the concentration at 0.5 h in [1] stood at 13900 ng/mL. The compound also showed a concentration at 1 h in series [1] of 14300 ng/mL. In series [1], this compound had a concentration at 1.5 h of 9800 ng/mL. Moreover, in series [1], the concentration at 2 h was found to be 5200 ng/mL. Besides, the Cmax in [1] was roughly 14300 ng/mL. Moreover, the MIC is 47.5 µg/mL (≈ 96.2 µM) with Serratia marcescens; 1 µg/mL (≈ 2.03 µM) with Aerobacter aerogenes; 2.5 µg/mL (≈ 5.06 µM) in the series on Escherichia coli; greater than 200 µg/mL in the series on Pseudomonas aeruginosa; 2 µg/mL (≈ 4.05 µM) in the series with Shigella sp.; 1 µg/mL (≈ 2.03 µM) in the series with Klebsiella pneumoniae. The MIC in the series with Salmonella heidelberg worked out at 1 µg/mL (≈ 2.03 µM). In series [2] (S. pyogenes infections in mice, 1.15/0.08), the “ED50 times lower than that exhibited by compound No. 4” value is “approximately 14 times”. Moreover, in [2] (S. pyogenes infections in mice, 4.05/0.08), the “ED50 times lower than that exhibited by compound No. 2” value is recorded as “approximately 50 times”. Moreover, the ED50 was 0.08 mg/kg in series [2], less than 4.5 mg/kg with Proteus mirabilis PR6, less than 1.1 mg/kg in [3] and 2.1 mg/kg with Escherichia coli EC14.
For the compound `Cc1nnc(SCC2=C(C(=O)O)N3C(=O)C(NC(=O)C(N)c4ccccc4)C3SC2)s1` (stereo not drawn) [compound 4, reference compound], in [1], the concentration at 10 min came out at 1980 ng/mL, the concentration at 20 min worked out at 3380 ng/mL, the concentration at 0.5 h was determined as 3990 ng/mL and the concentration at 1 h was determined as 2340 ng/mL. For the same compound, in series [1], the concentration at 1.5 h was found to be 1610 ng/mL and the Cmax is roughly 4000 ng/mL. Further, in series [2], the ED50 worked out at 1.15 mg/kg. Besides, the ED50 in the series on Proteus mirabilis PR6 was found to be 20.7 mg/kg. For the same compound, in series [3], the 50% effective dose (ED50) was 5.2 mg/kg. Moreover, the ED50 in the series with Escherichia coli EC14 stood at 6.9 mg/kg.
